Source: patent US12681018B2, “Photoactive fluorescent compounds and use thereof for labeling of proteins” (EIKON THERAPEUTICS, INC., priority 2021, dated 2026)
In brackets after ≈: the same amount, converted by molar mass. Read-outs that look alike come from different tables or passages of the source.

Tests used:
[1] = Kinetic solubility in PBS at 7.4; type: physicochemical; details: PBS buffer, aqueous buffer, kinetic from dmso stock, pH 7.4, 500 μM final concentration, 1.5 hours at room temperature, average of three runs, read-out: Ksol
Description: 190 μL of buffer solution (PBS, pH 7.4) was added to wells on a 96-well Millipore Solubility filter plate. Then 10 μL of test compound in DMSO (10 mM) were added to give final concentration of 500 μM.
The filter plate was shaken for 1.5 hours at room temperature in the dark and samples were filtered via a vacuum system into a fresh 96-well plate. Samples were diluted to 500 μM (highest concentration) in DMSO and further diluted (1:10) to provide three-point calibration curve. Absorbance was measured using HPLC/UV analysis at 220 nm, 254 nm, and 280 nm.

[2] = tested on: histone H2B-HaloTag fusion; experiment: Halo-protein specificity (Specificity Factor), single-molecule imaging in U2OS cells; type: cell-based; details: ratio of slope (spots vs dye concentration, 1-200 nM, 45 minutes) relative to PA-JF549
Description: The following day the cells were incubated with PA-JF549 or Examples 1-4 at a range of concentrations between 200 nM and 1 nM for 45 minutes. […] Samples were imaged on a Nikon Ti2 microscope with fiber-optic coupled illumination source. […] Images were collected every 10 msec for 5 seconds per field of view and pulses of ascending intensity 405 nm light (between 0 and 12 mW at the coverslip) were used to photoactivate dye molecules.
For each dye compound, a linear regression was used to determine the relationship between the concentration of dye compound and the number of fluorescence spots detected on the microscope, where in WT cells the ideal dye would have no correlation between compound concentration and number of slots measured. The Specificity Factor was calculated as the ratio of the slope of the compound in question relative to the slope calculated for PA-JF549 and is shown in Table 3 below.

[3] = molecular target: T1, Estrogen Receptor-HaloTag (ER-Halo) fusion (Rhodococcus rhodochrous, UniProt P0A3G2, A155T/A167V/A172T/A224E/C128F/C176G/D78G/E160K/E257K/H272N/K175M/K195N/L47V/L88M/N227D/P291S/S58T/T264A/Y273L/Y87F); type: cell-based; details: tracks in WT U2OS cells, ratio with PA-JF549 in the numerator, 100 nM, 1 hr
T1 construct: expressed in transfected cells; host or cells: U2OS
T1 sequence (P03372 whole entry, the tested form may be a part): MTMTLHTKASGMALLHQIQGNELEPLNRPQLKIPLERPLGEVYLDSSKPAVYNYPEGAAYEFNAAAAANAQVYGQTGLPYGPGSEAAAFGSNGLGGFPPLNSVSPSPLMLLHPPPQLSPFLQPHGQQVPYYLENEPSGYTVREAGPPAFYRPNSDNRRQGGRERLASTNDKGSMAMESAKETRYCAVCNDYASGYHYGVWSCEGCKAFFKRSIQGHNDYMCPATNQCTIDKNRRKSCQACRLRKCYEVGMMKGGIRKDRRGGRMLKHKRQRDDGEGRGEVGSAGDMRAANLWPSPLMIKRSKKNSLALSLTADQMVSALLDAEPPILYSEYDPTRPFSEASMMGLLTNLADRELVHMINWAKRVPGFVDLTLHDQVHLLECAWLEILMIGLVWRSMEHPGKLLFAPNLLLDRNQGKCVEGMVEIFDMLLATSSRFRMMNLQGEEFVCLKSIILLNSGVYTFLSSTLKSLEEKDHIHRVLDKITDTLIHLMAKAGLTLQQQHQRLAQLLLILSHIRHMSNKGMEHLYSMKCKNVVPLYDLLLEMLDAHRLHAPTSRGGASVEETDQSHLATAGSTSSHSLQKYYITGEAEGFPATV
T1 sequence (P0A3G2 other isoform, or with tags, fused parts or gaps with the stated changes): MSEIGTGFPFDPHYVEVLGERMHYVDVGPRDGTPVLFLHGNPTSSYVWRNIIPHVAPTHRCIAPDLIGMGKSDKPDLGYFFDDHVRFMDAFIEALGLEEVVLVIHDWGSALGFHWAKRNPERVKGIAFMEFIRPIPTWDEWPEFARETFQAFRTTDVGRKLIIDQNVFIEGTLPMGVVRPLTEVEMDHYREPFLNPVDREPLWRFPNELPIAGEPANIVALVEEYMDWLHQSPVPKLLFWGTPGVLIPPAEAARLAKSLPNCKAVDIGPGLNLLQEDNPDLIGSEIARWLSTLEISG
Description: Using the methods described in Tables 4a and 4b above, labelling specificity of the compound of Examples 1-24 was measured and compared to PA-JF549. U2OS cells wild type or expressing ER-HaloTag fusion were incubated with PA-JF549 or Examples 1-24 for 1 hr. […] Labeling specificity, as measured by the fold reduction in nonspecific labeling of WT cells, was calculated by number of tracks measured in WT cells for Examples 1-24 compared to the number of tracks in WT cells for PA-JF549, expressed as the ratio with PA-JF549 in the numerator.

Structure (SMILES) | solubility kinetic at 1.5 h [1] [µM] | Specificity Factor [2] | Fold reduction in nonspecific labeling ([3]; Table 4a) | Fold reduction in nonspecific labeling ([3]; Table 4b)
COC(=O)C1CN(c2ccc3c(c2)Oc2cc(N4CC(C(=O)OC)C4)ccc2C32C(=[N+]=[N-])C(=O)c3ccc(C(=O)NCCOCCOCCCCCCCl)cc32)C1 [Example 1, dimethyl 1,1′-(6-((2-(2-((6-chlorohexyl)oxy)ethoxy)ethyl)carbamoyl)-2-diazo-3-oxo-2,3-dihydrospiro[indene-1,9′-xanthene]-3′,6′-diyl)bis(azetidine-3-carboxylate)] | 58.4 (≈ 46.7 µg/mL) | 2.66 | >10 | >10
[N-]=[N+]=C1C(=O)c2ccc(C(=O)NCCOCCOCCCCCCCl)cc2C12c1ccc(N3CC(C(=O)O)C3)cc1Oc1cc(N3CC(C(=O)O)C3)ccc12 [Example 2, 1,1′-(6-((2-(2-((6-chlorohexyl)oxy)ethoxy)ethyl)carbamoyl)-2-diazo-3-oxo-2,3-dihydrospiro[indene-1,9′-xanthene]-3′,6′-diyl)bis(azetidine-3-carboxylic acid)] | 481 (≈ 371 µg/mL) | <1 | >10 | >10
COC[C@H]1CCN1c1ccc2c(c1)Oc1cc(N3CC[C@@H]3COC)ccc1C21C(=[N+]=[N-])C(=O)c2ccc(C(=O)NCCOCCOCCCCCCCl)cc21 [Example 3, N-(2-(2-((6-chlorohexyl)oxy)ethoxy)ethyl)-2-diazo-3′,6′-bis((R)-2-(methoxymethyl)azetidin-1-yl)-3-oxo-2,3-dihydrospiro[indene-1,9′-xanthene]-6-carboxamide] | 39.5 (≈ 30.5 µg/mL) | 2.07 | 1-5 | 1-5
CN(C)C(=O)C1CN(c2ccc3c(c2)Oc2cc(N4CC(C(=O)N(C)C)C4)ccc2C32C(=[N+]=[N-])C(=O)c3ccc(C(=O)NCCOCCOCCCCCCCl)cc32)C1 [Example 4, 1,1′-(6-((2-(2-((6-chlorohexyl)oxy)ethoxy)ethyl)carbamoyl)-2-diazo-3-oxo-2,3-dihydrospiro[indene-1,9′-xanthene]-3′,6′-diyl)bis(N,N-dimethylazetidine-3-carboxamide)] | 3.69 (≈ 3.05 µg/mL) | 23.8 | >10 | >10
